{"source": "patent US20110224256A1", "about": "“T[…] THE TREATMENT OF PSYCHIATRIC DISORDERS” (priority 2008, published 2011)", "key": {"D2 dopamine receptor": {"system": "D2 dopamine receptor", "assay": "D2 dopamine receptor binding in the striatum by quantitative autoradiography after juvenile methylphenidate", "format": "in vivo, rats", "settings": "40 days of age, postnatal day 20-35", "procedure": "FIG. 7. In this study, rats were administered a dosage of 2 mg/kg methylphenidate either by osmotic minipump (continuous release) or twice daily by interperitoneal injection (intermittent) between the ages of postnatal day 20-35. D2 dopamine receptor binding was assessed in the striatum at 40 days of age using quantitative autoradiography (see Andersen et al., Synapse 37:167-169 (2000))."}, "Sprague-Dawley male rats": {"system": "Sprague-Dawley male rats", "assay": "rCBV by MRI with MION contrast after MPH challenge in adulthood", "format": "in vivo", "procedure": "MRI was conducted in two groups of animals (MPH-treated or VEH treated; n=7) at approximately 60 days old. Functional changes in rCBV were determined by drug-induced alterations following paramagnetic contrast agent […] iron oxide nanocolloid (MION) in anesthetized treated subjects (Chen et al., 2001). All experiments were performed at 2 T or 4.7 T on a GE Omega CSI instrument (GE, Fremont, Calif., USA) using a home-built surface coil for transmit-receive and immobilization of the head using a rigid plastic head holder. All VEH/MPH subjects were matched for scanner strength to control for any possible differences due to magnet strength (Mandeville et al., Magn. Reson. Med., 52:1272-1281 (2004)). […]\nAccording to standard methods, 20 baseline images were collected, followed by a 10 mg/kg injection of MION (an iron particle-based contrast agent that produces long-lasting intravascular contrast for T2* contrast measures) and an additional 20 baseline images. […] Images were measured serially with a temporal resolution of 2 min.\nAll functional images within each condition were registered onto the same standard brain template to facilitate comparisons between the experimental groups. Registration parameters were determined for each functional scan using a single full-brain image set that is the average of all baseline time points prior to drug injection. […]"}, "D3 receptor mRNA": {"system": "D3 receptor mRNA", "assay": "D3 receptor mRNA by Q-PCR after juvenile drug exposure", "format": "in vivo, Sprague-Dawley rats", "settings": "for reduction in D3 receptor mRNA: MPH 2 mg/kg i.p. twice daily P20-P35, HCl"}}, "note": "Values joined by “and” are separate entries in the source; they are usually repeats but may differ in a detail not shown here. Equal values may be shown once. Where a name gives a salt, the structure may show the parent alone."}
{"smiles": "COC(=O)C(c1ccccc1)C1CCCCN1", "note": "(stereo not drawn) [MPH, d,l-Methylphenidate HCl]", "values": [{"measurement": "D2 receptor density", "setting": "D2 dopamine receptor; 2 mg/kg by osmotic minipump (continuous release)", "value": "but not when administered by continuous release"}, {"measurement": "D2 receptor density", "setting": "D2 dopamine receptor; 2 mg/kg twice daily by intraperitoneal injection (intermittent)", "value": "reduced significantly"}, {"measurement": "rCBV change after MPH challenge in adulthood", "setting": "Sprague-Dawley male rats; MPFCx, juvenile MPH 2 mg/kg twice daily P20-P35 vs VEH-treated, 2 mg/kg i.v. MPH challenge", "value": "significantly increased"}, {"measurement": "enduring effects of juvenile exposure on rCBV", "setting": "Sprague-Dawley male rats; dorsolateral PFCx or caudate putamen, juvenile MPH exposure", "value": "no significant enduring effects"}, {"measurement": "reduction in D3 receptor mRNA", "setting": "D3 receptor mRNA; MPFCx, assessed at P40", "value": "28.9±8.3% and 28.9%"}, {"measurement": "D3 mRNA levels in the place-conditioned animals", "setting": "D3 receptor mRNA; MPFCx, corrected by GAPDH, juvenile MPH 2 mg/kg or MPH + 0.05 mg/kg Naf, F3,20=8.76, P<0.001", "value": "significantly changed"}, {"measurement": "reduction in D3 receptor mRNA", "setting": "D3 receptor mRNA; MPFCx, relative to VEH controls, 25 days post-exposure (P60)", "value": "23.8±6.7% and 23.8%"}, {"measurement": "D3 mRNA change", "setting": "D3 receptor mRNA; accumbens or striatum, MPH-exposed, P>0.5", "value": "did not change"}]}
